{"source": "paper PMC7162859", "about": "(Scientific Reports, 2020)", "key": {"[1]": {"assay": "Rapid equilibrium dialysis for unbound fractions in mouse plasma and brain homogenate", "assay_type": "in vitro ADME", "details": "FVB, 37 °C", "protocol": "Rapid equilibrium dialysis was used to determine unbound fractions with modifications[48],[49] to manufacturer’s protocol (Thermo Fisher Scientific). Mouse plasma and brain homogenates (in 3 volumes of PBS, w/v) were spiked with 0.1 mg/mL ispinesib to obtain final concentrations of 1 µM. 300 µL of drug-spiked matrices were placed in donor chamber, and 500 µL of PBS was placed in receiver chamber of inserts (8 kDa MWCO), in triplicates. The base plate with inserts was incubated on Bioshaker at 37 °C and 1000 rpm for 4 hours. Ispinesib concentrations in samples were analyzed by liquid-chromatography tandem mass-spectrometry (LC-MS/MS).\nThe unbound fractions of ispinesib in plasma and brain were determined by using rapid equilibrium dialysis (RED) technique, with some alterations ^1,2 to manufacturer’s protocol (Thermo Fisher Scientific). […] RED experiments were initially conducted at 1, 2, 5 and 10 µM concentrations of ispinesib with 4 and 6 hour time points. […] Consequently, unbound fractions at 1 µM concentration and 4 hr time point were utilized for estimation of Kp,uu and free concentrations of ispinesib. […] The samples collected from the donor and receiver chambers after dialysis for 4 hours were stored at -80°C and analyzed for ispinesib concentrations by LC-MS/MS analysis. […]"}, "GBM1A cells": {"tested_on": "GBM1A cells", "assay": "In vitro cytotoxicity assay (CellTiter-Glo, 72 hours)", "assay_type": "cell-based, human", "details": "for EC50: Homo sapiens, 72 h, 72 hours, read-out: Ispinesib EC50", "description": "TP53(−/−) and PTEN(−/−) cells were seeded into 96-well plates (pre-coated with fibronectin) at a density of 5,000 cells per well in DMEM media with 0.5% FBS, 1% nitrogen supplement, 10 ng/ml of FGF and 10 ng/ml of PDGFAA. Human GBM1A cells were seeded into 96 well plates (pre-coated with laminin) in DMEM media with 1% neuroPlex supplement, 20 ng/ml of EGF and 20 ng/ml of […]. After 24 hours (~70% confluency), cells were exposed to ispinesib (n = 10 wells per concentration) from 0.025–1000 nM with or without 500 nM elacridar co-treatment. The plates were incubated for 72 hours, cell viability measured using CellTiter-Glo ATP-based assay, and read on a luminometer. The dose-response data were fit to the Hill equation.\nIn vitro potency data was fitted to “log(inhibitor) vs. normalized response - variable slope” equation in GraphPad Prism version 6.04 (GraphPad, La Jolla, CA) to determine half-maximal effective concentration (EC50)."}, "orthotopic GBM1A tumors [2]": {"tested_on": "orthotopic GBM1A tumors", "assay": "Pharmacodynamics: monopolar spindle formation in orthotopic GBM1A tumors", "assay_type": "in vivo, NSG mice", "details": "single ip dose 10 mg/kg each drug; 8 hours", "description": "Female NSG mice were intracerebrally injected with 500,000 GBM1A cells at coordinates X = 1.5 mm, Y = 1.5 mm and Z = 2.5 mm relative to the bregma, and tumor growth was monitored by bioluminescence imaging. After 4 weeks (tumor size of about 2 × 10^9 photons/sec), animals were randomized to receive single ip dose of microemulsion vehicle, 10 mg/kg elacridar, 10 mg/kg ispinesib, or a combination of 10 mg/kg ispinesib and 10 mg/kg elacridar (n = 8–10). At 8 hours following treatment, mice were perfused and whole brains were isolated. The samples were processed for immunofluorescence by staining for tubulin with an alpha-tubulin antibody (Cell signaling, Cat#2125) and counter staining with DAPI for visualizing nuclei. Images were scanned and counted for cells with monopolar spindles."}, "orthotopic GBM1A tumors [3]": {"tested_on": "orthotopic GBM1A tumors", "assay_type": "in vivo", "details": "10 mg/kg ip each drug once every 4 days for 28 days", "description": "Female NSG mice were intracranially implanted with 500,000 luciferase expressing GBM1A cells (transduced with lentiviral particles expressing GFP-Luciferase). After 7 days, animals were randomized into four groups and ip administered with microemulsion vehicle, 10 mg/kg elacridar, 10 mg/kg ispinesib, or a combination of 10 mg/kg ispinesib and 10 mg/kg elacridar, once every 4 days for 28 days (n = 10). The dosing schedule of once every 4 days was based on our previously publication with ispinesib. Tumor growth was monitored by bioluminescence imaging and animals were followed for survival.\nThe progression of tumor growth was monitored by bioluminescence imaging (BLI) using an IVIS system. Mice that underwent stereotactic injection with GFP-luciferase expressing GBM1A cells were imaged twice a week. Ten minutes prior to imaging, mice were intraperitoneally injected with d-luciferin at 75 mg/kg body weight (3 mL/kg injection volume). Animals were immobilized using 1.5% − 3.0% isoflurane provided by nose cones within the imager and were kept warm using a heated stage set at 37 °C during the imaging procedure. Following imaging for about 5 minutes, animals were removed from the IVIS chamber and monitored until they fully recovered from anesthesia."}, "[4]": {"details": "FVB wild-type; for Fold increase in Kp: 10 mg/kg i.p. ispinesib with or without 10 mg/kg i.p. elacridar; for increase of brain-to-plasma concentration ratio / brain delivery of ispinesib with elacridar co-administration: 10 mg/kg ip ispinesib + 10 mg/kg elacridar vs ispinesib alone, 2 and 6 hours, 10 mg/kg", "protocol": "(§1) Blood and brain specimens were harvested at 2 and 6 hours post-dose.\n(§2) All dosing solutions were prepared on the day of the study. A serial sacrifice (destructive sampling) design was employed for sample collection. In all the pharmacokinetic studies conducted in non-tumor bearing FVB mice, the group size was 4 at each sampling time point (n = 4). At pre-determined time points, mice were euthanized using a carbon dioxide chamber. Blood was collected by cardiac puncture and transferred to sample tubes coated with heparin. The whole brain was isolated from skull and rinsed with ice-cold distilled water, and superficial meninges were removed by blotting with tissue paper. Plasma was separated by centrifugation of blood samples at 3500 rpm and 4°C for 15 minutes. […] All the samples were stored at -80°C, until further analysis. The concentrations of ispinesib in all the samples were analyzed by LC-MS/MS. Assuming a vascular volume of 1.4% in mouse brain ^5, the concentrations in brain were corrected for residual drug in brain vasculature.\nKp=CbrainCplasma (Equation 4)"}, "[5]": {"details": "GBM-bearing rats; for Fold increase in Kp over the Kp in normal brain of ispinesib treated group: 10 mg/kg ip, 2 hours; for increase in Kp when elacridar is co-administered with ispinesib: vs ispinesib alone", "protocol": "(§3) Blood and brain (tumor-bearing) samples were collected at 2 hours post-dose, and whole brains were immediately flash frozen.\n(§4) A fluorescence-guided punch biopsy technique (Supplementary Fig. S2) was developed and employed for isolation of tumor core, tumor rim (brain adjacent to tumor, BAT) and normal (non-tumor) brain regions from brain samples. Briefly, an acrylic adult rat brain matrix (WPI) was used to obtain thick coronal brain sections (1–2 mm thick) through the Td-Tomato labelled tumors. The tumor regions were identified by relative fluorescence signal (Nikon AZ100M microscope), and biospy punches with varying diameters were utilized to isolate tumor core (tumor region with fluorescence signal 5-fold or higher relative to background signal) and rim (region adjacent to tumor core with fluorescence signal 3 to 5-fold higher relative to background) (Supplementary Fig. S3). The samples from individual brains were pooled together for analysis of ispinesib concentrations by LC-MS/MS.\n(§5) The tumor-bearing brain samples were harvested at 2 hours post dose (n = 9). Coronal sections that were 1-2 mm thick were obtained using an acrylic brain matrix, and a fluorescence microscopy guided punch biopsy method was utilized for the isolation of tumor core, tumor rim (brain adjacent to tumor, BAT) and normal (non-tumor) brain regions. The tumor core was identified as the tumor region with a fluorescence signal that was 5-fold or higher relative to the background signal. The tumor rim was defined as the region around the tumor core with a fluorescence signal 3 to 5-fold higher relative to the background signal. The brain tissue with a fluorescence signal similar to or lower than the background fluorescence was collected as the normal brain. The samples collected from each brain were pooled together, and ispinesib concentrations were determined using LC-MS/MS."}, "in vivo [6]": {"assay": "in vivo", "details": "FVB, mouse, iv, 5 mg/kg", "protocol": "A single intravenous bolus dose of 5 mg/kg ispinesib (vehicle: ethanol, Tween 80 and distilled water in volume ratio of 20:2.5:77.5) was administered to FVB wild-type and Mdr1a/b^−/− Bcrp1^−/− mice. This was followed by collection of whole blood and brain samples at 0.17, 0.5, 1, 2, 4, 8 and 15 hours post-dose, and blood samples were centrifuged to separate plasma for further analysis. […] The drug concentrations in all samples were measured by a specific and sensitive LC-MS/MS assay for ispinesib.\nas §2\nKp=AUCbrainAUCplasma (Equation 3)\nDA= Kp, knockoutKp, wildtype (Equation 5)\nKp,uu=AUCbrain X fu, brain AUCplasma X fu, plasma (Equation 6)\nThe pharmacokinetic parameters from the concentration-time profiles in plasma and brain were determined by non-compartmental analysis (NCA) using Phoenix WinNonlin version 6.4 (Certara USA, Inc., Princeton, NJ). The AUCplasma and AUCbrain were calculated using the linear trapezoidal method. The standard errors around the mean of AUC was estimated by the sparse sampling module in WinNonlin ^6."}, "in vivo [7]": {"assay": "in vivo", "details": "FVB, mouse, 10 mg/kg; for concentration at 2 h / concentration at 6 h: intraperitoneal", "protocol": "as §1, §2\nKp=CbrainCplasma (Equation 4)"}, "in vivo [8]": {"assay": "in vivo", "details": "Sprague-Dawley, rat, ip, 10 mg/kg", "protocol": "as §3, §4, §5"}, "[9]": {"details": "5 mg/kg iv bolus, Mdr1a/b-/- Bcrp1-/- mice"}}, "note": "Read-outs that look alike come from different tables or passages of the source.", "data": [{"smiles": "Cc1ccc(C(=O)N(CCCN)[C@@H](c2nc3cc(Cl)ccc3c(=O)n2Cc2ccccc2)C(C)C)cc1", "note": "[Ispinesib, N-(3-aminopropyl)-N-[(1 R)-1-(3-benzyl-7-chloro-4-oxoquinazolin-2-yl)-2-methylpropyl]-4-methylbenzamide]", "values": [{"measurement": "fraction unbound at 4 h, 1 µM", "setting": "[1]; mouse brain homogenate, corrected for dilution, read-out: percentage of unbound drug in brain", "value": "0.0005 ± 0.0002"}, {"measurement": "fraction unbound at 4 h, 1 µM", "setting": "[1]; mouse plasma, read-out: percentage of unbound drug in plasma", "value": "0.006 ± 0.001"}, {"measurement": "EC50", "setting": "GBM1A cells; [Elacridar] 0 nM", "value": "1.4 ± 0.2", "unit": "nM"}, {"measurement": "EC50", "setting": "GBM1A cells; [Elacridar] 500 nM", "value": "0.5 ± 0.04", "unit": "nM"}, {"measurement": "Hill Coefficient", "setting": "GBM1A cells; [Elacridar] 0 nM", "value": "1.8 ± 0.3"}, {"measurement": "Hill Coefficient", "setting": "GBM1A cells; [Elacridar] 500 nM", "value": "1.7 ± 0.2"}, {"measurement": "monopolar spindles in tumor core (tubulin/DNA staining)", "setting": "orthotopic GBM1A tumors [2]", "value": "occasional monopoles"}, {"measurement": "tumor doubling time (bioluminescence, single exponential fit)", "setting": "orthotopic GBM1A tumors [3]; days 7–37", "value": 9.4, "unit": "days"}, {"measurement": "median survival", "setting": "orthotopic GBM1A tumors [3]; vehicle 61 days", "value": 74, "unit": "days"}, {"measurement": "Fold increase in Kp", "setting": "[4]; 2 hrs", "value": 1}, {"measurement": "Fold increase in Kp", "setting": "[4]; 6 hrs", "value": 1}, {"measurement": "increase of brain-to-plasma concentration ratio / brain delivery of ispinesib with elacridar co-administration", "setting": "[4]", "value": "approximately 10 fold"}, {"measurement": "increase of brain-to-plasma concentration ratio / brain delivery of ispinesib with elacridar co-administration", "setting": "[4]; listed as ispinesb", "value": 10, "unit": "fold"}, {"measurement": "Fold increase in Kp over the Kp in normal brain of ispinesib treated group", "setting": "[5]; Normal brain", "value": 1}, {"measurement": "Fold increase in Kp over the Kp in normal brain of ispinesib treated group", "setting": "[5]; Tumor core", "value": 7}, {"measurement": "Fold increase in Kp over the Kp in normal brain of ispinesib treated group", "setting": "[5]; Tumor rim", "value": 2.5}, {"measurement": "increase in Kp when elacridar is co-administered with ispinesib", "setting": "[5]; tumor core", "value": 4, "unit": "fold"}, {"measurement": "increase in Kp when elacridar is co-administered with ispinesib", "setting": "[5]; tumor rim and normal brain regions", "value": "approximately 10 fold"}, {"measurement": "Kp uu", "setting": "in vivo [6]; brain and plasma", "value": 0.02}, {"measurement": "Kp uu", "setting": "in vivo [6]; brain/plasma", "value": 1}, {"measurement": "AUC(0-inf)", "setting": "in vivo [6]; plasma", "value": 5800, "unit": "ng·h/mL"}, {"measurement": "AUC(0-t)", "setting": "in vivo [6]; plasma", "value": "7500 ± 400", "unit": "ng·h/mL"}, {"measurement": "clearance", "setting": "in vivo [6]; plasma", "value": 9.9, "unit": "mL/min/kg"}, {"measurement": "half-life", "setting": "in vivo [6]; plasma", "value": 4.8, "unit": "h"}, {"measurement": "Kp at 2 h", "setting": "in vivo [7]; brain and plasma, ip", "value": "0.1 ± 0.08"}, {"measurement": "Kp at 6 h", "setting": "in vivo [7]; brain and plasma, ip", "value": "0.38 ± 0.14"}, {"measurement": "concentration at 2 h", "setting": "in vivo [7]; brain", "value": "80 ± 20", "unit": "ng/mL"}, {"measurement": "concentration at 6 h", "setting": "in vivo [7]; brain", "value": "270 ± 90", "unit": "ng/mL"}, {"measurement": "concentration at 2 h", "setting": "in vivo [7]; plasma", "value": "1110 ± 570", "unit": "ng/mL"}, {"measurement": "concentration at 6 h", "setting": "in vivo [7]; plasma", "value": "730 ± 110", "unit": "ng/mL"}, {"measurement": "Kp at 2 h", "setting": "in vivo [8]; normal brain", "value": "0.11 ± 0.09"}, {"measurement": "concentration at 2 h", "setting": "in vivo [8]; normal brain", "value": "60 ± 40", "unit": "ng/mL"}, {"measurement": "Kp at 2 h", "setting": "in vivo [8]; tumor core", "value": "0.77 ± 0.55"}, {"measurement": "concentration at 2 h", "setting": "in vivo [8]; tumor core", "value": "380 ± 240", "unit": "ng/mL"}, {"measurement": "Kp at 2 h", "setting": "in vivo [8]; tumor rim", "value": "0.27 ± 0.18"}, {"measurement": "concentration at 2 h", "setting": "in vivo [8]; tumor rim", "value": "150 ± 110", "unit": "ng/mL"}, {"measurement": "predicted unbound concentrations in the brain compared with in vitro EC50 against GBM1A", "setting": "5 mg/kg intravenous, FVB wild-type mice, from in vivo concentrations and fu", "value": "appreciably below the EC50"}, {"measurement": "Kp, brain-to-plasma AUC ratio (total drug)", "setting": "[9]", "value": 12.12}, {"measurement": "Kp,uu, unbound partition coefficient", "setting": "[9]", "value": 1.01}, {"measurement": "Kp, brain-to-plasma AUC ratio (total drug)", "setting": "5 mg/kg iv bolus, wild-type mice", "value": 0.23}]}]}
